These results are taken from patent US8563730B2, “Pyrazole and fused pyrazole glucokinase activators” (Takeda San Diego, Inc., priority 2008, dated 2013).

The target of this assay is T1, GK (glucokinase, residues 12-465) (Homo sapiens, UniProt P35557).
T1 construct: I.D. No. 1 corresponds to residues 12-465 of glucokinase; made in house; host or cells: DH10b-T1r E. coli
T1 sequence (P35557 with tags, fused parts or gaps isoform P35557-2): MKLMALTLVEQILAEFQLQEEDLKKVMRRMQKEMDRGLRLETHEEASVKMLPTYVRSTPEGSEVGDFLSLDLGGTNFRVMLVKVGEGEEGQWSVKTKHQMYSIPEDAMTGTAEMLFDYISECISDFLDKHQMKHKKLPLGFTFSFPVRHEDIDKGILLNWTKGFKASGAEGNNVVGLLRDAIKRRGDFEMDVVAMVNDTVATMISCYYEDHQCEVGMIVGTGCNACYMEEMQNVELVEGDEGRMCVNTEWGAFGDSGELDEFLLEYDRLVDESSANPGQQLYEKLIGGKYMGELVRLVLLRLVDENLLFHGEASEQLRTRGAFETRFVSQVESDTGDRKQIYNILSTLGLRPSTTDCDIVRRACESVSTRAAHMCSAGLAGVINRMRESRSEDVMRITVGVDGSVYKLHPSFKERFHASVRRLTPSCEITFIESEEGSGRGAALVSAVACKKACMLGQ
The assay can be described thus: enzymatic glucokinase activity assay (ATP consumption, KinaseGlo luminescence). In kind it is biochemical. As to conditions: 5 μM ATP, 5 mM Glucose, reported as bins; for EC50: Kact = concentration that displays 50% of the maximal increase in GK activity, 60 min, room temperature, read-out: pKact. The text has this:
The activity of compounds as glucokinase activators may be assayed in vitro, in vivo or in a cell line. Provided below is an enzymatic glucokinase activity assay.
Purified glucokinase may be obtained as follows. […] SEQ.
The expression of recombinant glucokinase protein may be carried out by transformation and growth of DH10b-T1r E. coli cells incorporating the (pFLAG-CTC) plasmid in LB media. Protein expression can be induced in this system by the addition of IPTG to the culture medium.
Recombinant protein may be isolated from cellular extracts by passage over Sepharose Q Fast Flow resin (Pharmacia). This partially purified GK extract may then be further purified by a second passage over Poros HQ10 (Applied Biosystems). The purity of GK may be determined on denaturing SDS-PAGE gel. Purified GK may then be concentrated to a final concentration of 20.0 mg/ml. After flash freezing in liquid nitrogen, the proteins can be stored at −78° C. in a buffer containing 25 mM TRIS-HCl pH 7.6, 50 mM NaCl, and 0.5 mM TCEP.
The activation properties of compounds for GK may be determined using a black 384-well-plate format under the following reaction conditions: 25 mM Hepes pH 7.2, 25 mM NaCl, 10 mM MgCl2, 0.01% Brij35, 1 mM DTT, 5 μM ATP, 5 mM Glucose 2% DMSO. The amount of ATP consumed may be determined quantitatively by addition of equal volume of luciferase reagent (luciferase+beetle luciferin—KinaseGlo Luminescent Kinase Assay kit from Promega). The luminescence intensity may be measured by using the Analyst HT from LJL Biosystems.
The reaction mixture may then be incubated at room temperature for 60 min, and quenched and developed by addition of 10 μL of luciferase reagent. Luminescence intensities of the resulting reaction mixtures may be measured after a 10 min incubation at room temperature. The luminescence intensity may be measured by using the Analyst HT from LJL Biosystems.
pKact and % ACTmax values may be calculated by non-linear curve fitting of the compound concentrations and luminescence intensities to a standard inhibition/activation equation.
Background: In Kinase-Glo more light means more ATP remaining.

[1] abbreviates: calculated maximal gain in GK enzyme activity at a saturating concentration of the compound, read-out: % ACTmax.

Values joined by “and” are separate entries in the source; they are usually repeats but may differ in a detail not shown here. Equal entries are not always repeated. Where two headings read alike, the source gives them in different places.

`COc1ccc2nc(NC(=O)[C@H](CC3CCOCC3)n3ccc(S(=O)(=O)C4CC4)n3)sc2n1` [Compound 2, (S)-2-(3-(cyclopropylsulfonyl)-1H-pyrazol-1-yl)-N-(5-methoxythiazolo[5,4-b]pyridin-2-yl)-3-(tetrahydro-2H-pyran-4-yl)propanamide]: the EC50 is no less than 15800 nM. For the same molecule, the Emax under setting [1] is no more than 90%.

Turning to `O=C(Nc1ncc(F)s1)[C@@H](CC1CCOCC1)n1ncc2c(S(=O)(=O)C3CC3)cc(Cl)cc21` [Compound 145, (R)-2-(6-chloro-4-(cyclopropylsulfonyl)-1H-indazol-1-yl)-N-(5-fluorothiazol-2-yl)-3-(tetrahydro-2H-pyran-4-yl)propanamide], the EC50 was 3980 to 12600 nM. For the same molecule, under setting [1], the Emax was no more than 90%.

Take `O=C(Nc1ncc(F)s1)[C@@H](CC1CCOCC1)n1ncc2c(S(=O)(=O)C3CC3)cc(O)cc21` [Compound 77, (R)-2-(4-(cyclopropylsulfonyl)-6-hydroxy-1H-indazol-1-yl)-N-(5-fluorothiazol-2-yl)-3-(tetrahydro-2H-pyran-4-yl)propanamide]: the EC50 is no less than 15800 nM. Moreover, under setting [1], the Emax was 101 to 105%.

On to `O=C(Nc1ncc(F)s1)C(CC1CCOCC1)n1cc(S(=O)(=O)C2CC2)cn1` (stereo not drawn) [Compound 28, 2-(4-(cyclopropylsulfonyl)-1H-pyrazol-1-yl)-N-(5-fluorothiazol-2-yl)-3-(tetrahydro-2H-pyran-4-yl)propanamide], for which the EC50 is 3980 to 12600 nM. The Emax under setting [1] was no less than 111%.

Take `N#Cc1cnc(NC(=O)[C@@H](CC2CCOCC2)n2ncc3c(S(=O)(=O)C4CC4)cccc32)s1` [Compound 137, (R)-N-(5-cyanothiazol-2-yl)-2-(4-(cyclopropylsulfonyl)-1H-indazol-1-yl)-3-(tetrahydro-2H-pyran-4-yl)propanamide]: the EC50 lay within 3980 to 12600 nM. Besides, the Emax under setting [1] is no more than 90%.

For the molecule `COc1ccc2nc(NC(=O)[C@H](CC3CCOCC3)n3cc(S(=O)(=O)C4CC4)cn3)sc2n1` [Compound 26, (S)-2-(4-(cyclopropylsulfonyl)-1H-pyrazol-1-yl)-N-(5-methoxythiazolo[5,4-b]pyridin-2-yl)-3-(tetrahydro-2H-pyran-4-yl)propanamide], the EC50 is no less than 15800 nM. Besides, the Emax under setting [1] was no more than 90%.

For `COc1ccc2c(cnn2[C@@H](CC2CCOCC2)C(=O)Nc2ccn(C)n2)c1S(=O)(=O)C1CC1` [Compound 109, (S)-2-(4-(cyclopropylsulfonyl)-5-methoxy-1H-indazol-1-yl)-N-(1-methyl-1H-pyrazol-3-yl)-3-(tetrahydro-2H-pyran-4-yl)propanamide], the EC50 was no more than 316 nM. Moreover, the Emax under setting [1] was 101 to 105%.

Regarding `O=C1CC[C@H](CC(C(=O)Nc2ncc(Cl)s2)n2ncc3c(S(=O)(=O)C4CC4)cccc32)C1` (stereo partly drawn) [Compound 11, N-(5-chlorothiazol-2-yl)-2-(4-(cyclopropylsulfonyl)-1H-indazol-1-yl)-3-((R)-3-oxocyclopentyl)propanamide], the EC50 was no more than 316 nM. Further, the Emax under setting [1] was 101 to 105%.

Take `CCn1ccc(NC(=O)C(CC2CCOCC2)n2ncc3c(S(=O)(=O)C4CC4)c(F)ccc32)n1` (stereo not drawn) [Compound 155, 2-(4-(cyclopropylsulfonyl)-5-fluoro-1H-indazol-1-yl)-N-(1-ethyl-1H-pyrazol-3-yl)-3-(tetrahydro-2H-pyran-4-yl)propanamide]: the EC50 is no more than 316 nM. Moreover, the Emax under setting [1] is 106 to 110%.

On to `Cn1ccc(NC(=O)[C@H](CC2CCOCC2)n2ncc3c(S(=O)(=O)C4CC4)ccnc32)n1` [Compound 98, (S)-2-(4-(cyclopropylsulfonyl)-1H-pyrazolo[3,4-b]pyridin-1-yl)-N-(1-methyl-1H-pyrazol-3-yl)-3-(tetrahydro-2H-pyran-4-yl)propanamide], for which the EC50 is 398 to 1260 nM. The Emax under setting [1] is 90 to 100%.

In the case of `O=C(Nc1cnccn1)C(CC1CCOCC1)n1ncc2c(S(=O)(=O)C3CC3)ccnc21` (stereo not drawn) [Compound 97, 2-(4-(cyclopropylsulfonyl)-1H-pyrazolo[3,4-b]pyridin-1-yl)-N-(pyrazin-2-yl)-3-(tetrahydro-2H-pyran-4-yl)propanamide], the EC50 fell in the range of 398 to 1260 nM. Besides, the Emax under setting [1] is 106 to 110%.

On to `O=C1CC[C@H](C[C@@H](C(=O)Nc2cnccn2)n2ncc3c(S(=O)(=O)C4CC4)cccc32)C1` [Compound 74, (S)-2-(4-(cyclopropylsulfonyl)-1H-indazol-1-yl)-3-((R)-3-oxocyclopentyl)-N-(pyrazin-2-yl)propanamide], for which the EC50 lay in the range of 1580 to 3160 nM. The Emax under setting [1] is 90 to 100%.

In the case of `Cn1ccc(NC(=O)[C@H](CC2CCOCC2)n2ncc3c(S(=O)(=O)C4CC4)cc(C#N)cc32)n1` [Compound 105, (S)-2-(6-cyano-4-(cyclopropylsulfonyl)-1H-indazol-1-yl)-N-(1-methyl-1H-pyrazol-3-yl)-3-(tetrahydro-2H-pyran-4-yl)propanamide], the EC50 is 398 to 1260 nM and ≤ 316 nM. Moreover, the Emax under setting [1] is no more than 90%.

For `O=C(Nc1ncc(F)s1)C(CC1CCOCC1)n1ncc2c(S(=O)(=O)C3CC3)ccnc21` (stereo not drawn) [Compound 127, 2-(4-(cyclopropylsulfonyl)-1H-pyrazolo[3,4-b]pyridin-1-yl)-N-(5-fluorothiazol-2-yl)-3-(tetrahydro-2H-pyran-4-yl)propanamide], the EC50 is no more than 316 nM. The Emax under setting [1] is 101 to 105%.

In the case of `COc1ccc2c(cnn2C(CC2CCOCC2)C(=O)Nc2ncc(F)s2)c1S(=O)(=O)C1CC1` (stereo not drawn) [Compound 80, 2-(4-(cyclopropylsulfonyl)-5-methoxy-1H-indazol-1-yl)-N-(5-fluorothiazol-2-yl)-3-(tetrahydro-2H-pyran-4-yl)propanamide], the EC50 was no more than 316 nM. For the same molecule, the Emax under setting [1] was 101 to 105%.

For `O=C(Nc1ncc(F)s1)[C@@H](CC1CCOCC1)n1cc(S(=O)(=O)C2CCCC2)cn1` (single isomer, unassigned) [Compound 37, 2-(4-(cyclopentylsulfonyl)-1H-pyrazol-1-yl)-N-(5-fluorothiazol-2-yl)-3-(tetrahydro-2H-pyran-4-yl)propanamide], the EC50 is 1580 to 3160 nM. Besides, the Emax under setting [1] is no less than 111%.

As to `N#Cc1cc(S(=O)(=O)C2CC2)c2cnn(C(CC3CCOCC3)C(=O)Nc3ncc(F)s3)c2c1` (stereo not drawn) [Compound 120, 2-(6-cyano-4-(cyclopropylsulfonyl)-1H-indazol-1-yl)-N-(5-fluorothiazol-2-yl)-3-(tetrahydro-2H-pyran-4-yl)propanamide], the EC50 is no more than 316 nM. Also, under setting [1], the Emax is 90 to 100%.

On to `O=C(Nc1ncc(F)s1)[C@H](CC1CCOCC1)n1ncc2c(S(=O)(=O)C3CC3)cncc21` [Compound 84, (S)-2-(4-(cyclopropylsulfonyl)-1H-pyrazolo[3,4-c]pyridin-1-yl)-N-(5-fluorothiazol-2-yl)-3-(tetrahydro-2H-pyran-4-yl)propanamide], for which the EC50 is no more than 316 nM. Besides, the Emax (read-out: % ACTmax, calculated maximal gain in GK enzyme activity at a saturating concentration of the compound) was 106 to 110%.

With `O=C1CC[C@H](C[C@H](C(=O)Nc2ncc(Cl)s2)n2ncc3c(S(=O)(=O)C4CC4)cccc32)C1` [Compound 114, (R)-N-(5-chlorothiazol-2-yl)-2-(4-(cyclopropylsulfonyl)-1H-indazol-1-yl)-3-((R)-3-oxocyclopentyl)propanamide], the EC50 was no more than 316 nM. Also, under setting [1], the Emax is 101 to 105%.

For `O=C(Nc1ncc(Cl)s1)C(CC1CCOCC1)n1cc2cc(S(=O)(=O)C3CC3)ccc2n1` (stereo not drawn) [Compound 51, N-(5-chlorothiazol-2-yl)-2-(5-(cyclopropylsulfonyl)-2H-indazol-2-yl)-3-(tetrahydro-2H-pyran-4-yl)propanamide], the EC50 was in the range of 398 to 1260 nM. Under setting [1], the Emax is no less than 111%.

For the molecule `Cn1ccc(NC(=O)C(CC2CCOCC2)n2cc3c(S(=O)(=O)C4CC4)cc(Cl)cc3n2)n1` (stereo not drawn) [Compound 167, 2-(6-chloro-4-(cyclopropylsulfonyl)-2H-indazol-2-yl)-N-(1-methyl-1H-pyrazol-3-yl)-3-(tetrahydro-2H-pyran-4-yl)propanamide], the EC50 fell in the range of 3980 to 12600 nM. Further, the Emax under setting [1] is no more than 90%.
